Experimental data: US11479539B2, “Small molecule modulators of the BTB domain of Keap1” (MedImmune Limited, priority 2017, dated 2022)

Molecular target: Keap1 (Homo sapiens (Human), UniProt Q14145)
Experiment: HEK293 ARE luciferase assay
Assay type: cell-based
Settings: HEK-293 ARE firefly luciferase transiently transfected cells; 18 h incubation; mean of 1 to 20 individual measurements
Excerpt: The purpose of this assay is to identify small molecule inhibitors of Keap1, preventing Keap1 binding to Nrf2, and thus activating the Nrf2 signalling pathway in HEK-293 ARE firefly luciferase transiently transfected cells. HEK-293 cells express wild-type Keap1 protein and therefore have low constitutive levels of Nrf2 protein and Nrf2-dependent transcription. […] When Keap1 is inhibited, Nrf2 signalling is activated, and there is an increase in luciferase expression and light emission.
Cryopreserved HEK ARE luciferase cells were rapidly thawed in a 37° C. water bath and resuspended in assay culture medium (DMEM, 10% FCS, 2 mM L-glutamine). The cell suspension was pelleted by centrifugation ([…]; 300 g) using a Heraeus benchtop centrifuge. Supernatant was removed and the pellet was gently resuspended in 5 mL culture medium per vial. Cell viability and cell number was measured using an Invitrogen Countess automated cell counter (typical viability 80%), and cells were diluted to a density of 5.0×10^5 cells/mL.
Cells were then plated out into white 384-well plates (Greiner 781080) using a Multidrop Combi, 20 μL/well, to give 10,000 cells/well. As appropriate, test compounds had been added to wells prior to dispensing cells using an Echo 555 acoustic dispenser (Labcyte). Plates were left at room temperature for ˜10 min to promote even cell settling across the plate before incubation for 18 h at 37° C., 95% humidity and 5% CO2.
After 18 h incubation, plates were removed from the incubator and allowed to cool to room temperature for 30 min, before 10 μL per well SteadyGlo reagent detection reagent was added (as per manufacturer's instructions, 10 min before required 10 mL room temperature buffer was added to one vial of lyophilised substrate and inverted several times to fully dissolve). Plates were then incubated in the dark for 30 min before reading on an Envision plate reader.
Compounds were acoustically dispensed using a Labcyte Echo, using a 10 pt dose curve with a top concentration of 100 μM. Assay wells were backfilled with DMSO to a total of 60 nL to maintain 0.3% (v/v) DMSO through the assay.
The Stimulator signal was defined using 30 μM tert-butyl hydroquinone (tBHQ) and the Neutral signal by DMSO vehicle control. All calculations were performed using GeneData.
In IBIS Column Calculations, Assay Type was set to ‘Stimulator’, and the Activity Threshold was set to 50.
The mean values were calculated from anywhere from 1 to 20 individual measurements.

Sequence of Keap1 (Q14145 whole entry): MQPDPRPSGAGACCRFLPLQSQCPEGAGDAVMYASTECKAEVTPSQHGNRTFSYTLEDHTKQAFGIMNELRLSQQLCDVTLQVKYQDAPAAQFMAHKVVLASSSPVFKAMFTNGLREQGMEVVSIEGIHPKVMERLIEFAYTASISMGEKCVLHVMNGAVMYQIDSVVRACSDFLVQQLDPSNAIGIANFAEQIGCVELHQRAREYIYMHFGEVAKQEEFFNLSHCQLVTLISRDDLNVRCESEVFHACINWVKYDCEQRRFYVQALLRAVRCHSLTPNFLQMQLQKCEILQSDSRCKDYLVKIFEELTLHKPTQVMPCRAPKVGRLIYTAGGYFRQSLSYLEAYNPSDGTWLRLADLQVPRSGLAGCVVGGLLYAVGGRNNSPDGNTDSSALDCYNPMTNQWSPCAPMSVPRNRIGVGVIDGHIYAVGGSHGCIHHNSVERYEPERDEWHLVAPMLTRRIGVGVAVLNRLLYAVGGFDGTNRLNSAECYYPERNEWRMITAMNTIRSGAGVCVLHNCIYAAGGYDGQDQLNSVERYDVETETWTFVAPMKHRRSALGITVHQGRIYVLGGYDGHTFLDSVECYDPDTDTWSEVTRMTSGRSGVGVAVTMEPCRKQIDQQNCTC

Row | SMILES | EC50
1 | COC1(c2ncc(F)cc2-c2sc(C)nc2C)C=C(C#N)C(=O)C(C)(C)C1 (single isomer, unassigned) [Compound 93, 3-[3-(2,4-dimethylthiazol-5-yl)-5-fluoro-2-pyridyl]-3-methoxy-5,5-dimethyl-6-oxo-cyclohexene-1-carbonitrile] | 5 nM
2 | C/C=C/c1cc(F)cnc1C1(OC)C=C(C#N)C(=O)C(C)(C)C1 (single isomer, unassigned) [Compound 94, 3-{5-fluoro-3-[(1E)-prop-1-en-1-yl]pyridin-2-yl}-3-methoxy-5,5-dimethyl-6-oxocyclohex-1-ene-1-carbonitrile] | 21 nM
3 | COC1(c2nc(C)c(Br)s2)C=C(C#N)C(=O)C(C)(C)C1 (single isomer, unassigned) [Compound 98, 3-(5-bromo-4-methyl-1,3-thiazol-2-yl)-3-methoxy-5,5-dimethyl-6-oxocyclohex-1-ene-1-carbonitrile] | 79 nM
4 | COC1(c2nc(C)c(-c3ccccn3)s2)C=C(C#N)C(=O)C(C)(C)C1 (single isomer, unassigned) [Compound 99, 3-methoxy-5,5-dimethyl-3-[4-methyl-5-(pyridin-2-yl)-1,3-thiazol-2-yl]-6-oxocyclohex-1-ene-1-carbonitrile] | 66 nM
5 | COC1(c2ncc(F)cc2C#CC(C)C)C=C(C#N)C(=O)C(C)(C)C1 (single isomer, unassigned) [Compound 100, 3-[5-fluoro-3-(3-methylbut-1-yn-1-yl)pyridin-2-yl]-3-methoxy-5,5-dimethyl-6-oxocyclohex-1-ene-1-carbonitrile] | 77 nM
6 | CCCc1cccnc1C1(OC)C=C(C#N)C(=O)C(C)(C)C1 (single isomer, unassigned) [Compound 101, 3-methoxy-5,5-dimethyl-6-oxo-3-(3-propylpyridin-2-yl)cyclohex-1-ene-1-carbonitrile] | 33 nM
7 | COC1(c2nc(C)c(-c3ccccn3)s2)C=C(C#N)C(=O)C2(CC2)C1 (single isomer, unassigned) [Compound 102, 7-methoxy-7-[4-methyl-5-(pyridin-2-yl)-1,3-thiazol-2-yl]-4-oxospiro[2.5]oct-5-ene-5-carbonitrile] | 73 nM
8 | COC1(c2cccc(-c3cncnc3)n2)C=C(C#N)C(=O)C(C)(C)C1 (single isomer, unassigned) [Compound 104, 3-methoxy-5,5-dimethyl-6-oxo-3-(6-(pyrimidin-5-yl)pyridin-2-yl)cyclohex-1-ene-1-carbonitrile] | 45 nM
9 | COC1(c2cccc(-c3cnn(C)c3)n2)C=C(C#N)C(=O)C(C)(C)C1 (single isomer, unassigned) [Compound 107, 3-methoxy-5,5-dimethyl-3-(6-(1-methyl-1H-pyrazol-4-yl)pyridin-2-yl)-6-oxocyclohex-1-ene-1-carbonitrile] | 37 nM
10 | COC1(c2ncc(F)cc2-c2ccc3nc(C)cn3c2)C=C(C#N)C(=O)C(C)(C)C1 (single isomer, unassigned) [Compound 201, 3-[5-fluoro-3-(2-methylimidazo[1,2-a]pyridin-6-yl)pyridin-2-yl]-3-methoxy-5,5-dimethyl-6-oxocyclohex-1-ene-1-carbonitrile] | 182 nM
11 | COC1(c2ncc(F)cc2-c2ccc3ccnn3c2)C=C(C#N)C(=O)C(C)(C)C1 (single isomer, unassigned) [Compound 203, 3-[5-fluoro-3-(pyrazolo[1,5-a]pyridin-6-yl)pyridin-2-yl]-3-methoxy-5,5-dimethyl-6-oxocyclohex-1-ene-1-carbonitrile] | 6 nM
12 | COC1(c2ncc(C)cn2)C=C(C#N)C(=O)C(C)(C)C1 (single isomer, unassigned) [Compound 204, 3-methoxy-5,5-dimethyl-3-(5-methylpyrimidin-2-yl)-6-oxocyclohex-1-ene-1-carbonitrile] | 9 nM
13 | COC1(c2ncc(F)cc2-c2cnc3c(c2)OCCN3C)C=C(C#N)C(=O)C(C)(C)C1 (single isomer, unassigned) [Compound 205, 3-[5-fluoro-3-(4-methyl-3,4-dihydro-2H-pyrido[3,2-b][1,4]oxazin-7-yl)pyridin-2-yl]-3-methoxy-5,5-dimethyl-6-oxocyclohex-1-ene-1-carbonitrile] | 52 nM
14 | COC1(c2ncc(Cl)cc2C(F)F)C=C(C#N)C(=O)C(C)(C)C1 (single isomer, unassigned) [Compound 206, 3-[5-chloro-3-(difluoromethyl)pyridin-2-yl]-3-methoxy-5,5-dimethyl-6-oxocyclohex-1-ene-1-carbonitrile] | 159 nM
15 | COC1(c2ncc(F)cc2-c2ccnc(S(=O)(=O)N(C)C)c2)C=C(C#N)C(=O)C(C)(C)C1 (single isomer, unassigned) [Compound 207, 2-[3-cyano-1-methoxy-5,5-dimethyl-4-oxocyclohex-2-en-1-yl]-5-fluoro-N,N-dimethyl[3,4′-bipyridine]-2′-sulfonamide] | 48 nM
16 | COC1(c2ncc(Cl)cc2C(F)(F)F)C=C(C#N)C(=O)C(C)(C)C1 (single isomer, unassigned) [Compound 208, 3-[5-chloro-3-(trifluoromethyl)pyridin-2-yl]-3-methoxy-5,5-dimethyl-6-oxocyclohex-1-ene-1-carbonitrile] | 231 nM
17 | COC1(c2ncc(F)cc2-c2cnnc(C)c2)C=C(C#N)C(=O)C(C)(C)C1 (single isomer, unassigned) [Compound 209, 3-[5-fluoro-3-(6-methylpyridazin-4-yl)pyridin-2-yl]-3-methoxy-5,5-dimethyl-6-oxocyclohex-1-ene-1-carbonitrile] | 15 nM
18 | COC1(c2ncc(F)cc2-c2cnc(C(F)(F)F)nc2)C=C(C#N)C(=O)C(C)(C)C1 (single isomer, unassigned) [Compound 210, 3-{5-fluoro-3-[2-(trifluoromethyl)pyrimidin-5-yl]pyridin-2-yl}-3-methoxy-5,5-dimethyl-6-oxocyclohex-1-ene-1-carbonitrile] | 20 nM
19 | COC1(c2ncc(C(F)(F)F)cn2)C=C(C#N)C(=O)C(C)(C)C1 (single isomer, unassigned) [Compound 211, 3-methoxy-5,5-dimethyl-6-oxo-3-[5-(trifluoromethyl)pyrimidin-2-yl]cyclohex-1-ene-1-carbonitrile] | 4 nM
20 | COC1(c2ncc(F)cc2-c2ccc3ncnn3c2)C=C(C#N)C(=O)C(C)(C)C1 (single isomer, unassigned) [Compound 212, 3-[5-fluoro-3-([1,2,4]triazolo[1,5-a]pyridin-6-yl)pyridin-2-yl]-3-methoxy-5,5-dimethyl-6-oxocyclohex-1-ene-1-carbonitrile] | 7 nM
21 | COC1(c2ncc(F)cc2-c2cncc(C(F)(F)F)c2)C=C(C#N)C(=O)C(C)(C)C1 (single isomer, unassigned) [Compound 215, 3-[5-fluoro-5′-(trifluoromethyl)[3,3′-bipyridin]-2-yl]-3-methoxy-5,5-dimethyl-6-oxocyclohex-1-ene-1-carbonitrile] | 15 nM
22 | COC1(c2ncc(F)cn2)C=C(C#N)C(=O)C(C)(C)C1 (single isomer, unassigned) [Compound 216, 3-(5-fluoropyrimidin-2-yl)-3-methoxy-5,5-dimethyl-6-oxocyclohex-1-ene-1-carbonitrile] | 21 nM
23 | COC1(c2ncc(F)cc2-c2cnccc2C#N)C=C(C#N)C(=O)C(C)(C)C1 (single isomer, unassigned) [Compound 217, 2′-[3-cyano-1-methoxy-5,5-dimethyl-4-oxocyclohex-2-en-1-yl]-5′-fluoro[3,3′-bipyridine]-4-carbonitrile] | 12 nM
24 | COc1cc(-c2cc(F)cnc2C2(OC)C=C(C#N)C(=O)C(C)(C)C2)c(Cl)cn1 (single isomer, unassigned) [Compound 218, 3-(5′-chloro-5-fluoro-2′-methoxy[3,4′-bipyridin]-2-yl)-3-methoxy-5,5-dimethyl-6-oxocyclohex-1-ene-1-carbonitrile] | 23 nM
25 | COC1(c2ncc(F)cc2-c2cnn3ccccc23)C=C(C#N)C(=O)C(C)(C)C1 (single isomer, unassigned) [Compound 219, 3-[5-fluoro-3-(pyrazolo[1,5-a]pyridin-3-yl)pyridin-2-yl]-3-methoxy-5,5-dimethyl-6-oxocyclohex-1-ene-1-carbonitrile] | 5 nM
26 | COC1(c2ncc(F)cc2-c2ccnnc2)C=C(C#N)C(=O)C(C)(C)C1 (single isomer, unassigned) [Compound 220, 3-[5-fluoro-3-(pyridazin-4-yl)pyridin-2-yl]-3-methoxy-5,5-dimethyl-6-oxocyclohex-1-ene-1-carbonitrile] | 10 nM
